The results in this text go back to BindingDB's records for doi:10.1021/acs.jmedchem.9b01317 (Fudan University, 2020).

One may read the IC50 as the concentration that gives 50% inhibition.

This experiment in a line: Inhibition of RIPK3 in human HT-29 cells assessed as reduction in TSZ-induced necroptosis by Cell Titer Glo assay.

Take `CC(=O)O[C@@H]1CCC(C)(C)[C@H]2C[C@@H](O)C3=C[C@@H](CCC(=O)[C@@]21C)[C@H](C)C3=O`: the IC50 came out at 0.2 µM.
